Results taken from US20220218852A1, “NOVEL RADIOLABELLED CXCR4-TARGETING COMPOUNDS FOR DIAGNOSIS AND THERAPY” (PROVINCIAL HEALTH SERVICES AUTHORITY, priority 2019, published 2022).
Like-named read-outs stand apart in the source and are kept apart here. Positions of bridges follow the written chain, without caps; N, C: chain ends. Non-standard residues stand in square brackets, D forms with d. Residues, ends and D or L forms follow the SMILES beside them. Groups on a side chain read outwards from the residue. *: point of attachment. DOTA = O=C(O)CN1CCN(CC(=O)O)CCN(CC(=O)*)CCN(CC(=O)O)CC1; 2Nal = N[C@@H](Cc1ccc2ccccc2c1)C(=O)O; Lys(iPr) = CC(C)NCCCC[C@H](N)C(=O)O

Columns and labels:
Format in all cases: in vivo
[1] = Biodistribution in Daudi tumor-bearing mice; conditions: male, NOD.Cg-Rag1^tm1MomII2rg^tm1Wjl/SzJ (NRG), mouse, iv, total radioactivity, Daudi
Method: (§1) For Daudi, Z138, GRANTA519 and Jeko1 xenografts, male NOD.Cg-Rag1^tm1MomII2rg^tm1Wjl/SzJ (NRG) mice were subcutaneously inoculated on the left flank with 5×10^6 cells (100 μL; 1:1 ratio of PBS/Matrigel) and tumors were grown to a size of 200-500 mm^3. For PC-3 xenografts, male NOD.Cg-Rag1^tm1MomII2rg^tm1Wjl/SzJ (NRG) mice were subcutaneously inoculated on the left flank with 5×10^6 PC-3 cells (100 μL; 1:1 ratio of PBS/Matrigel) and tumors were grown to a size of 200-400 mm^3.
(§2) The mice were euthanized via CO2 inhalation while anesthetized with isoflurane. Tissues were harvested, washed in PBS, blotted dry, weighed, and measured on a Hidex AMG Automatic Gamma Counter.

[2] = system: Daudi Burkitt's lymphoma xenografts; assay: Biodistribution in Daudi tumor-bearing mice; conditions: Daudi
Method: as §1, §2

[3] = Biodistribution in Z138 tumor-bearing mice; conditions: male, NOD.Cg-Rag1^tm1MomII2rg^tm1Wjl/SzJ (NRG), mouse, iv, total radioactivity, Z138
Method: as §1, §2

[4] = system: Z138 mantle cell lymphoma xenografts; assay: Biodistribution in Z138 tumor-bearing mice; conditions: Z138
Method: as §1, §2

[5] = blood, 1 h, read-out: Biodistribution Blood
[6] = blood, 1 h blocked (7.5 μg LY2510924 i.p.), read-out: Biodistribution Blood
[7] = fat, 1 h, read-out: Biodistribution Fat
[8] = fat, 1 h blocked (7.5 μg LY2510924 i.p.), read-out: Biodistribution Fat
[9] = 1 h blocked (7.5 μg LY2510924 i.p.)

Molecule `CC(C)NCCCC[C@@H]1NC(=O)[C@H](Cc2ccc(O)cc2)NC(=O)[C@H](Cc2ccccc2)NC(=O)CC[C@H](C(=O)N[C@@H](CCCCNC(C)C)C(=O)N[C@@H](CCCCNC(=O)[C@H](CCC(=O)O)NC(=O)[C@H](CCC(=O)O)NC(=O)[C@H](CCC(=O)O)NC(=O)CN2CCN(CC(=O)O)CCN(CC(=O)O)CCN(CC(=O)O)CC2)C(N)=O)NC(=O)CNC(=O)[C@H](Cc2ccc3ccccc3c2)NC(=O)[C@@H](CCCNC(=N)N)NC1=O` [[^68Ga]Ga-BL02, metal not drawn] (FY[Lys(iPr)][dR][2Nal]G[dE][Lys(iPr)]K([Glu-Glu-Glu-DOTA])-NH2; lactam N-7) has a tissue uptake at 1 h [1, 5] of 0.31 %ID/g, a tissue uptake at 1 h [1, 6] of 0.5 %ID/g and a tissue uptake at 2 h ([1]; blood, read-out: Biodistribution Blood) of 0.08 %ID/g. For the same molecule, the tissue uptake at 1 h [1, 7] was 0.05 %ID/g, the tissue uptake at 1 h [1, 8] was 0.07 %ID/g and the tissue uptake at 2 h ([1]; fat, read-out: Biodistribution Fat) was 0.02 %ID/g. The tissue uptake at 1 h ([1]; tumor, 1 h blocked (7.5 μg LY2510924 i.p.), read-out: Biodistribution Daudi (tumor)) was 0.8 %ID/g, the tissue uptake at 2 h ([1]; tumor, read-out: Biodistribution Daudi (tumor)) was 7.78 %ID/g and the “Biodistribution Adrenals” value ([2]; 1 h) was 0.36 % ID/g. For the same molecule, the “Biodistribution Bone” value ([2]; 1 h) was 0.19 % ID/g, the “Biodistribution Brain” value ([2]; 1 h) was 0.02 % ID/g and the “Biodistribution Daudi (tumor)” value ([2]; 1 h) was 8.52 % ID/g. For the same molecule, the “Biodistribution Heart” value ([2]; 1 h) was 0.13 % ID/g, the “Biodistribution Intestine” value ([2]; 1 h) was 0.22 % ID/g and the “Biodistribution Kidney” value ([2]; 1 h) was 4.18 % ID/g. The “Biodistribution Liver” value ([2]; 1 h) was 0.59 % ID/g, the “Biodistribution Lung” value ([2]; 1 h) was 0.48 % ID/g and the “Biodistribution Muscle” value ([2]; 1 h) was 0.10 % ID/g. The “Biodistribution Pancreas” value ([2]; 1 h) was 0.18 % ID/g, the “Biodistribution Spleen” value ([2]; 1 h) was 0.53 % ID/g and the “Biodistribution Stomach” value ([2]; 1 h) was 0.07 % ID/g. For the same molecule, the “Biodistribution Testes” value ([2]; 1 h) was 0.11 % ID/g, the “Ratio Tumor: Blood” value ([2]; 1 h) was 30.57 and the “Ratio Tumor: Bone” value ([2]; 1 h) was 48.04. For the same molecule, the “Ratio Tumor: Liver” value ([2]; 1 h) was 14.30, the “Ratio Tumor: Lung” value ([2]; 1 h) was 18.07 and the “Ratio Tumor: Muscle” value ([2]; 1 h) was 80.77. For the same molecule, the “Ratio Tumor: Spleen” value ([2]; 1 h) was 17.18, the “Biodistribution Adrenals” value [2, 9] was 0.32 % ID/g and the “Biodistribution Bone” value [2, 9] was 0.20 % ID/g. For the same molecule, the “Biodistribution Brain” value [2, 9] was 0.02 % ID/g, the “Biodistribution Heart” value [2, 9] was 0.14 % ID/g and the “Biodistribution Intestine” value [2, 9] was 0.31 % ID/g. The “Biodistribution Kidney” value [2, 9] was 4.63 % ID/g, the “Biodistribution Liver” value [2, 9] was 0.55 % ID/g and the “Biodistribution Lung” value [2, 9] was 0.58 % ID/g. The “Biodistribution Muscle” value [2, 9] was 0.09 % ID/g, the “Biodistribution Pancreas” value [2, 9] was 0.12 % ID/g and the “Biodistribution Spleen” value [2, 9] was 0.23 % ID/g. For the same molecule, the “Biodistribution Stomach” value [2, 9] was 0.07 % ID/g, the “Biodistribution Testes” value [2, 9] was 0.15 % ID/g and the “Ratio Tumor: Blood” value [2, 9] was 1.71. The “Ratio Tumor: Bone” value [2, 9] was 4.44, the “Ratio Tumor: Liver” value [2, 9] was 1.47 and the “Ratio Tumor: Lung” value [2, 9] was 1.43. For the same molecule, the “Ratio Tumor: Muscle” value [2, 9] was 9.23, the “Ratio Tumor: Spleen” value [2, 9] was 3.57 and the “Biodistribution Adrenals” value ([2]; 2 h) was 0.21 % ID/g. For the same molecule, the “Biodistribution Bone” value ([2]; 2 h) was 0.09 % ID/g, the “Biodistribution Brain” value ([2]; 2 h) was 0.01 % ID/g and the “Biodistribution Heart” value ([2]; 2 h) was 0.05 % ID/g. For the same molecule, the “Biodistribution Intestine” value ([2]; 2 h) was 0.12 % ID/g, the “Biodistribution Kidney” value ([2]; 2 h) was 3.40 % ID/g and the “Biodistribution Liver” value ([2]; 2 h) was 0.54 % ID/g. The “Biodistribution Lung” value ([2]; 2 h) was 0.27 % ID/g, the “Biodistribution Muscle” value ([2]; 2 h) was 0.04 % ID/g and the “Biodistribution Pancreas” value ([2]; 2 h) was 0.05 % ID/g. The “Biodistribution Spleen” value ([2]; 2 h) was 0.24 % ID/g, the “Biodistribution Stomach” value ([2]; 2 h) was 0.07 % ID/g and the “Biodistribution Testes” value ([2]; 2 h) was 0.05 % ID/g. For the same molecule, the “Ratio Tumor: Blood” value ([2]; 2 h) was 114.6, the “Ratio Tumor: Bone” value ([2]; 2 h) was 87.81 and the “Ratio Tumor: Liver” value ([2]; 2 h) was 14.47. The “Ratio Tumor: Lung” value ([2]; 2 h) was 31.68, the “Ratio Tumor: Muscle” value ([2]; 2 h) was 216.0 and the “Ratio Tumor: Spleen” value ([2]; 2 h) was 36.06. The tissue uptake at 1 h ([3]; Z138 tumor, 1 h, read-out: Biodistribution Z138 (tumor)) was 12.9 %ID/g, the tissue uptake at 1 h ([3]; Z138 tumor, 1 h blocked (7.5 μg LY2510924 i.p.), read-out: Biodistribution Z138 (tumor)) was 2.86 %ID/g and the tissue uptake at 1 h ([3]; adrenals, 1 h, read-out: Biodistribution Adrenals) was 0.14 %ID/g. For the same molecule, the tissue uptake at 1 h ([3]; adrenals, 1 h blocked (7.5 μg LY2510924 i.p.), read-out: Biodistribution Adrenals) was 0.59 %ID/g, the tissue uptake at 1 h [3, 5] was 0.3 %ID/g and the tissue uptake at 1 h [3, 6] was 0.83 %ID/g. For the same molecule, the tissue uptake at 1 h ([3]; bone, 1 h, read-out: Biodistribution Bone) was 0.08 %ID/g, the tissue uptake at 1 h ([3]; bone, 1 h blocked (7.5 μg LY2510924 i.p.), read-out: Biodistribution Bone) was 0.2 %ID/g and the tissue uptake at 1 h ([3]; brain, 1 h, read-out: Biodistribution Brain) was 0.01 %ID/g. It also gave a tissue uptake at 1 h ([3]; brain, 1 h blocked (7.5 μg LY2510924 i.p.), read-out: Biodistribution Brain) of 0.02 %ID/g, a tissue uptake at 1 h [3, 7] of 0.04 %ID/g and a tissue uptake at 1 h [3, 8] of 0.14 %ID/g. The tissue uptake at 1 h ([3]; heart, 1 h, read-out: Biodistribution Heart) was 0.11 %ID/g, the tissue uptake at 1 h ([3]; heart, 1 h blocked (7.5 μg LY2510924 i.p.), read-out: Biodistribution Heart) was 0.24 %ID/g and the tissue uptake at 1 h ([3]; intestine, 1 h, read-out: Biodistribution Intestine) was 0.19 %ID/g. For the same molecule, the tissue uptake at 1 h ([3]; intestine, 1 h blocked (7.5 μg LY2510924 i.p.), read-out: Biodistribution Intestine) was 0.61 %ID/g, the tissue uptake at 1 h ([3]; kidney, 1 h, read-out: Biodistribution Kidney) was 3.48 %ID/g and the tissue uptake at 1 h ([3]; kidney, 1 h blocked (7.5 μg LY2510924 i.p.), read-out: Biodistribution Kidney) was 7.86 %ID/g. It also gave a tissue uptake at 1 h ([3]; liver, 1 h, read-out: Biodistribution Liver) of 0.48 %ID/g, a tissue uptake at 1 h ([3]; liver, 1 h blocked (7.5 μg LY2510924 i.p.), read-out: Biodistribution Liver) of 0.55 %ID/g and a tissue uptake at 1 h ([3]; lung, 1 h, read-out: Biodistribution Lung) of 0.5 %ID/g. For the same molecule, the tissue uptake at 1 h ([3]; lung, 1 h blocked (7.5 μg LY2510924 i.p.), read-out: Biodistribution Lung) was 0.85 %ID/g, the tissue uptake at 1 h ([3]; muscle, 1 h, read-out: Biodistribution Muscle) was 0.05 %ID/g and the tissue uptake at 1 h ([3]; muscle, 1 h blocked (7.5 μg LY2510924 i.p.), read-out: Biodistribution Muscle) was 0.15 %ID/g. The tissue uptake at 1 h ([3]; pancreas, 1 h, read-out: Biodistribution Pancreas) was 0.08 %ID/g, the tissue uptake at 1 h ([3]; pancreas, 1 h blocked (7.5 μg LY2510924 i.p.), read-out: Biodistribution Pancreas) was 0.21 %ID/g and the tissue uptake at 1 h ([3]; spleen, 1 h, read-out: Biodistribution Spleen) was 0.33 %ID/g. It also gave a tissue uptake at 1 h ([3]; spleen, 1 h blocked (7.5 μg LY2510924 i.p.), read-out: Biodistribution Spleen) of 0.43 %ID/g, a tissue uptake at 1 h ([3]; stomach, 1 h, read-out: Biodistribution Stomach) of 0.07 %ID/g and a tissue uptake at 1 h ([3]; stomach, 1 h blocked (7.5 μg LY2510924 i.p.), read-out: Biodistribution Stomach) of 0.16 %ID/g. For the same molecule, the tissue uptake at 1 h ([3]; testes, 1 h, read-out: Biodistribution Testes) was 0.11 %ID/g, the tissue uptake at 1 h ([3]; testes, 1 h blocked (7.5 μg LY2510924 i.p.), read-out: Biodistribution Testes) was 0.26 %ID/g and the “Ratio Tumor: Blood” value ([4]; 1 h) was 43.12. The “Ratio Tumor: Bone” value ([4]; 1 h) was 163.06, the “Ratio Tumor: Liver” value ([4]; 1 h) was 26.89 and the “Ratio Tumor: Lung” value ([4]; 1 h) was 26.39. The “Ratio Tumor: Muscle” value ([4]; 1 h) was 240.96, the “Ratio Tumor: Spleen” value ([4]; 1 h) was 39.22 and the “Ratio Tumor: Blood” value [4, 9] was 3.94. The “Ratio Tumor: Bone” value [4, 9] was 19.08, the “Ratio Tumor: Liver” value [4, 9] was 5.23 and the “Ratio Tumor: Lung” value [4, 9] was 3.65. The “Ratio Tumor: Muscle” value [4, 9] was 21.59 and the “Ratio Tumor: Spleen” value [4, 9] was 7.40.
